{
  "source": "paper PMC6576746",
  "about": "“Rational discovery of dual-indication multi-target PDE/Kinase inhibitor for precision anti-cancer therapy using structural systems pharmacology” (PLoS Computational Biology, 2019)",
  "assay_in_all_cases": "cells",
  "parameters_in_all_cases": "species or system panel of human cancer cell lines; Eurofins OncoPanel proliferation; nuclei count by high-content fluorescence imaging, 10-point dose response",
  "key": {"SNU-423": {"tested_on": "SNU-423", "conditions": "Homo sapiens, SNU-423, 72 h, cell count, 3 days", "in_short": "(§1)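 Ten half-log concentrations from 100 μM (0.1% DMSO max) applied one day post-seeding, 3-day exposure at 37°C; untreated time-zero plate for GI50. Readout is nuclear cell count by automated fluorescence imaging, giving EC50, IC50, GI50 and 0–10 activity area.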"}, "TCCSUP": {"tested_on": "TCCSUP", "conditions": "Homo sapiens, TCC-SUP, 72 h, cell count, 3 days", "in_short": "as §1"}, "SNB-19": {"tested_on": "SNB-19", "conditions": "Homo sapiens, SNB-19, 72 h, cell count, 3 days", "in_short": "as §1"}, "Calu6": {"tested_on": "Calu6", "conditions": "Homo sapiens, Calu-6, 72 h, cell count, 3 days", "in_short": "as §1"}, "HT-1197": {"tested_on": "HT-1197", "conditions": "Homo sapiens, HT1197, 72 h, cell count, 3 days", "in_short": "as §1"}, "JEG-3": {"tested_on": "JEG-3", "conditions": "Homo sapiens, JEG-3, 72 h, cell count, 3 days", "in_short": "as §1"}, "SCC-9": {"tested_on": "SCC-9", "conditions": "Homo sapiens, SCC-9, 72 h, cell count, 3 days", "in_short": "as §1"}, "EB-3": {"tested_on": "EB-3", "conditions": "Homo sapiens, EB-3, 72 h, cell count, 3 days", "in_short": "as §1"}, "MG-63": {"tested_on": "MG-63", "conditions": "Homo sapiens, MG-63, 72 h, cell count, 3 days", "in_short": "as §1"}, "CAL-62": {"tested_on": "CAL-62", "conditions": "Homo sapiens, CAL-62, 72 h, cell count, 3 days", "in_short": "as §1"}, "SNU-C2B": {"tested_on": "SNU-C2B", "conditions": "Homo sapiens, SNU-C2B, 72 h, cell count, 3 days", "in_short": "as §1"}, "A-253": {"tested_on": "A-253", "conditions": "Homo sapiens, A253, 72 h, cell count, 3 days", "in_short": "as §1"}, "SW872": {"tested_on": "SW872", "conditions": "Homo sapiens, SW872, 72 h, cell count, 3 days", "in_short": "as §1"}, "A172": {"tested_on": "A172", "conditions": "Homo sapiens, A 172, 72 h, cell count, 3 days", "in_short": "as §1"}, "[1]": {"conditions": "50% of maximum possible response"}},
  "data": [
    {"smiles": "C[C@@H]1CC(=O)NN=C1c1ccc(NN=C(C#N)C#N)cc1", "note": "[levosimendan]", "values": [
      {"measurement": "IC50", "setting": "SNU-423; [1]", "result": 19.2, "unit": "µM"},
      {"measurement": "GI50", "setting": "SNU-423; corrected for time zero", "result": 16.5, "unit": "µM"},
      {"measurement": "EC50", "setting": "SNU-423; curve inflection point", "result": 14.8, "unit": "µM"},
      {"measurement": "IC50", "setting": "TCCSUP; [1]", "result": "> 100", "unit": "µM"},
      {"measurement": "GI50", "setting": "TCCSUP; corrected for time zero", "result": 94.3, "unit": "µM"},
      {"measurement": "EC50", "setting": "TCCSUP; curve inflection point", "result": "> 100", "unit": "µM"},
      {"measurement": "IC50", "setting": "SNB-19; [1]", "result": "> 100", "unit": "µM"},
      {"measurement": "GI50", "setting": "SNB-19; corrected for time zero", "result": "> 100", "unit": "µM"},
      {"measurement": "EC50", "setting": "SNB-19; curve inflection point", "result": "> 100", "unit": "µM"},
      {"measurement": "IC50", "setting": "Calu6; [1]", "result": "> 100", "unit": "µM"},
      {"measurement": "GI50", "setting": "Calu6; corrected for time zero", "result": 91.5, "unit": "µM"},
      {"measurement": "EC50", "setting": "Calu6; curve inflection point", "result": "> 100", "unit": "µM"},
      {"measurement": "IC50", "setting": "HT-1197; [1]", "result": "> 100", "unit": "µM"},
      {"measurement": "GI50", "setting": "HT-1197; corrected for time zero", "result": 96, "unit": "µM"},
      {"measurement": "EC50", "setting": "HT-1197; curve inflection point", "result": "> 100", "unit": "µM"},
      {"measurement": "IC50", "setting": "JEG-3; [1]", "result": 30.5, "unit": "µM"},
      {"measurement": "GI50", "setting": "JEG-3; corrected for time zero", "result": 25.6, "unit": "µM"},
      {"measurement": "EC50", "setting": "JEG-3; curve inflection point", "result": 30.5, "unit": "µM"},
      {"measurement": "IC50", "setting": "SCC-9; [1]", "result": 33.6, "unit": "µM"},
      {"measurement": "GI50", "setting": "SCC-9; corrected for time zero", "result": 26.3, "unit": "µM"},
      {"measurement": "EC50", "setting": "SCC-9; curve inflection point", "result": 33.6, "unit": "µM"},
      {"measurement": "IC50", "setting": "EB-3; [1]", "result": 30, "unit": "µM"},
      {"measurement": "GI50", "setting": "EB-3; corrected for time zero", "result": 23.6, "unit": "µM"},
      {"measurement": "EC50", "setting": "EB-3; curve inflection point", "result": 30, "unit": "µM"},
      {"measurement": "IC50", "setting": "MG-63; [1]", "result": 19.5, "unit": "µM"},
      {"measurement": "GI50", "setting": "MG-63; corrected for time zero", "result": 14.2, "unit": "µM"},
      {"measurement": "EC50", "setting": "MG-63; curve inflection point", "result": 16.9, "unit": "µM"},
      {"measurement": "IC50", "setting": "CAL-62; [1]", "result": 12.3, "unit": "µM"},
      {"measurement": "GI50", "setting": "CAL-62; corrected for time zero", "result": 11.4, "unit": "µM"},
      {"measurement": "EC50", "setting": "CAL-62; curve inflection point", "result": 12.1, "unit": "µM"},
      {"measurement": "IC50", "setting": "SNU-C2B; [1]", "result": 55.2, "unit": "µM"},
      {"measurement": "GI50", "setting": "SNU-C2B; corrected for time zero", "result": 31.1, "unit": "µM"},
      {"measurement": "EC50", "setting": "SNU-C2B; curve inflection point", "result": 45.4, "unit": "µM"},
      {"measurement": "IC50", "setting": "A-253; [1]", "result": 62.4, "unit": "µM"},
      {"measurement": "GI50", "setting": "A-253; corrected for time zero", "result": 41.7, "unit": "µM"},
      {"measurement": "EC50", "setting": "A-253; curve inflection point", "result": 62.4, "unit": "µM"},
      {"measurement": "IC50", "setting": "SW872; [1]", "result": 35.3, "unit": "µM"},
      {"measurement": "GI50", "setting": "SW872; corrected for time zero", "result": 28.9, "unit": "µM"},
      {"measurement": "EC50", "setting": "SW872; curve inflection point", "result": 35.3, "unit": "µM"},
      {"measurement": "IC50", "setting": "A172; [1]", "result": 55.8, "unit": "µM"},
      {"measurement": "GI50", "setting": "A172; corrected for time zero", "result": 44.8, "unit": "µM"},
      {"measurement": "EC50", "setting": "A172; curve inflection point", "result": 55.8, "unit": "µM"}
    ]}
  ]
}
